For data set [1], the target named is T1, CYP168A1 (Pseudomonas aeruginosa, UniProt Q9I107). Briefly: Fatty acid binding studies (spectral titration, type I difference spectra). The note with it: for Low- to high-spin state change (%): from ΔAmax; for Kd: read-out: Ks, mean of four replicates ± SD. As for the experimental part: The absorbance difference spectra from 500 nm to 350 nm were determined after each incremental addition of fatty acid. Ligand saturation curves were constructed from the change in absorbance (ΔApeak-trough) against fatty acid concentration. The dissociation constant for the fatty acid-CYP168A1 complex (Ks) was determined by nonlinear regression (Levenberg-Marquardt algorithm) using a rearrangement of the Morrison equation [14] and the Michaelis-Menten equation. […]. All fatty acid binding experiments were undertaken in quadruplicate.
T1 sequence (Q9I107 entry or part of it): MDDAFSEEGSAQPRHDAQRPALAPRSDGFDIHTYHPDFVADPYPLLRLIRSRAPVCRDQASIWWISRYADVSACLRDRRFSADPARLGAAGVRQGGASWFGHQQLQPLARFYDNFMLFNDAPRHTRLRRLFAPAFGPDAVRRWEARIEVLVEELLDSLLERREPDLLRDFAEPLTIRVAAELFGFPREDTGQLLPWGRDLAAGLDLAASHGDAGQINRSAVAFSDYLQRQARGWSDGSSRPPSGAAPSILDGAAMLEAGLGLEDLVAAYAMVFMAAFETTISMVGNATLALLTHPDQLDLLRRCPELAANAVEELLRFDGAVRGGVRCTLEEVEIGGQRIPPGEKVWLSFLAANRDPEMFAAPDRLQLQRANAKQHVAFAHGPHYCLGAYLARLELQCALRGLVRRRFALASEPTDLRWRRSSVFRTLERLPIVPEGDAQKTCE
In between ligand binding determinations, the quartz cuvettes were washed with deionized water and then soaked for 30 min in 2-propanol at room temperature to desorb any residual fatty acids from the cuvette surfaces, followed by rinsing a further three-times with 2-propanol and then deionized water prior to drying.

Data set [2] addresses T1, CYP168A1. The note with it: for Turnover no., ω-1- carbon hydroxylated / Turnover no., ω-2- carbon hydroxylated / % Product, ω-1- carbon hydroxylated / % Product, ω-2- carbon hydroxylated: 100 μM substrate, mean of two replicates ± standard error; for Turnover no., ω-1- carbon hydroxylated / Turnover no., ω-2- carbon hydroxylated: 0.25 μM CYP168A1, 37°C; for % Product, ω-1- carbon hydroxylated / % Product, ω-2- carbon hydroxylated: 0.25 μM CYP168A1, 2.5 h at 37°C; for hydroxylation rate at both the ω-1- and ω-2-positions (total): sum of ω-1 and ω-2 turnover.

For data set [3], the system named is CYP168A1. The note with it: comparison with ref 40.
Data set [4] has as its target T1, CYP168A1. It counts as biochemical. The note with it: 0.5% DMF in the CYP168A1 assay system. The protocol:
Assay mixtures were incubated at 37°C for 5 min prior to initiation with 4 mM β-NADPH-Na4 and then incubated for a further 2.5 hours at the same temperature. Fatty acids and their hydroxylated products were recovered by extraction with dichloromethane and dried in a vacuum centrifuge. TMS derivatisation of the samples and analysis by GCMS were performed as previously described. Percentage product formation was calculated from the GC peak areas of the fatty acid and the hydroxylated metabolites, with compound identities confirmed by mass fragmentation patterns of fatty acid standards.
Control assays contained no azole, but an equivalent volume of DMF. Experiments were undertaken in duplicate.

Data set [5] has as its target T1, CYP168A1. The note with it: 50 μM substrate, 2 μM CYP168A1, 3 hours at 37°C.
The test system of data set [6] is CYP168A1. The note with it: cited from earlier work.
For data set [7], the system named is CYP168A1. The note with it: cited from earlier work. The source holds these as a separate data set.
Data set [8] has as its system Candida albicans CYP51. Also noted: method as in PMID 23274672, PMID 20625155. The note with it: cited from earlier work.
In data set [9] the target is T1, CYP168A1. Briefly: Azole binding studies (spectral titration, type II difference spectra). The note with it: read-out: apparent dissociation constant (Kd) of azole-CYP168A1 complex; 2 μM CYP168A1, rearranged Morrison equation, duplicate.
For data set [10], the system named is Streptomyces peucetius CYP147F1. Also noted: method as in PMID 24055535. The note with it: cited from earlier work.
The subject of data set [11] is CYP168A1. Also noted: method as in PMID 35085556. The note with it: arachidonic acid as substrate, CYP168A1:ketoconazole ratio 5μM:10μM; cited from earlier work.
The mark [12] stands for this setting: 5 μM CYP168A1, cuvette path length 10 mm.
[13] abbreviates: 5 μM CYP168A1, path length 10 mm.
The mark [14] stands for this setting: 5 μM CYP168A1, 0.1 M Tris-HCl pH 8.1, room temperature, rearranged Morrison equation.

Where two headings read alike, the source gives them in different places. Marks after values point to notes of the source that are not given here.

Take `CCCCCCCCCCCCCCCC(=O)O` [Palmitic acid, palmitic acid]: the “fold-difference in apparent Ks values compared to stearic and linoleic acids” value (from here on “fold-difference in apparent Ks values”) in [1] is given as around 2 fold. The same compound came in with a ΔAmax in [1] (setting [12]) of 0.290 ±0.015. Further, the “Low- to high-spin state change (%)” value in [1] (setting [13]) is listed as 58.1 ±3.0%. The “Low- to high-spin state change (%)” value in data set [1] (5 μM CYP168A1, path length 10 mm, listed as palmitic acid) is 58%. In data set [1] (setting [14]), the Kd stood at 117 ± 56 nM. Besides, the Kd in [1] (5 μM CYP168A1, 0.1 M Tris-HCl pH 8.1, room temperature, rearranged Morrison equation, listed as palmitic acid) came out at 120 nM. Besides, in data set [2], the “Turnover no., ω-1- carbon hydroxylated” value amounted to 1.27 ± 0.10 min⁻¹; the “Turnover no., ω-2- carbon hydroxylated” value was 0.34 ± 0.10 min⁻¹; the “% Product, ω-1- carbon hydroxylated” value was 49 ± 3.8%; the “% Product, ω-2- carbon hydroxylated” value was found to be 13 ± 4.0%. In data set [2], the “hydroxylation rate at both the ω-1- and ω-2-positions (total)” value (“hydroxylation rate” below) worked out at 1.61 min⁻¹. Further, in [2] (listed as palmitic acid), the “Turnover no., ω-1- carbon hydroxylated” value amounted to 1.27 min⁻¹ and the “Turnover no., ω-2- carbon hydroxylated” value was found to be 0.34 min⁻¹. Further, the “turnover, fold greater than observed with Mycobacterium tuberculosis CYP124” value in [3] was determined as 23 fold.

Regarding `CN(C)C=O` [DMF, dimethylformamide], the “reduction in oleic acid turnover” value in data set [4] is on record as 10 fold.

As to `CCCCCCCCCCCCCC(=O)O` [Myristic acid, myristic acid], the “fold-difference in apparent Ks values” value in data set [1] is given as around 5 fold. Besides, in data set [1] (setting [13]), the “Low- to high-spin state change (%)” value is 22.8 ±1.6%. Besides, the “Low- to high-spin state change (%)” value in data set [1] (5 μM CYP168A1, path length 10 mm, listed as myristic acid) is 23%. Besides, in [1] (setting [14]), the Kd was determined as 249 ± 103 nM. In addition, the Kd in data set [1] (5 μM CYP168A1, 0.1 M Tris-HCl pH 8.1, room temperature, rearranged Morrison equation, listed as myristic acid) worked out at 250 nM. Besides, in data set [2], the “catalytic turnover, fold lower than palmitic acid” value was found to be 5.3 fold; the “fold less ω-1-hydroxy product formed than with palmitic acid as substrate” value was determined as 4.7 fold; the “fold less ω-2-hydroxy product formed than with palmitic acid as substrate” value stood at 10.3 fold; the “Turnover no., ω-1- carbon hydroxylated” value was 0.27 ± 0.02 min⁻¹. Further, in [2], the “Turnover no., ω-2- carbon hydroxylated” value is 0.033 ± 0.001 min⁻¹; the “% Product, ω-1- carbon hydroxylated” value is listed as 11 ± 0.6%; the “% Product, ω-2- carbon hydroxylated” value is given as 1.3 ± 0.03%; the “hydroxylation rate” value was found to be 0.30 min⁻¹.

`CC(C)CCC[C@@H](C)[C@H]1CC[C@H]2[C@@H]3CC=C4C[C@@H](O)CC[C@]4(C)[C@H]3CC[C@]12C` [cholesterol]: the oxygenated products formed entry in data set [5] was “no oxygenated products”.

With `CCCCC/C=C\C/C=C\C/C=C\C/C=C\CCCC(=O)O` [Arachidonic acid, arachidonic acid], the “Ks value, fold larger than stearic acid” value in [1] was 9000 fold. The “fold-difference in apparent Ks values” value in [1] is listed as around 9160 fold. For the same compound, the ΔAmax in data set [1] (5 μM CYP168A1, cuvette path length 4.5 mm) is 0.071 ±0.009 ^b. For the same compound, in [1] (compared with ref 28), the “Ks in this study, fold higher than recently reported” value was “over 400 fold”. Further, the “Low- to high-spin state change (%)” value in [1] (5 μM CYP168A1, path length 4.5 mm) is on record as 31.6 ±4.0 ^b %; in data set [1] (5 μM CYP168A1, path length 4.5 mm, listed as arachidonic acid), 32%. For the same compound, the Kd in data set [1] (5 μM CYP168A1, Michaelis-Menten equation, saturation not achieved at 660 μM) is 458000 ± 87000 nM; in data set [1] (5 μM CYP168A1, Michaelis-Menten equation, saturation not achieved at 660 μM, listed as arachidonic acid), around 460000 nM; in data set [6], 960 nM. Moreover, the CYP168A1 turnover number in [7] is 0.222 min⁻¹.

In the case of `CC(C)CCC[C@@H](C)[C@H]1CC[C@H]2[C@@H]3CCC4=CC(=O)CC[C@]4(C)[C@H]3CC[C@]12C` [cholesta-4-ene-3-one], the oxygenated products formed entry in [5] is recorded as “no oxygenated products”.

Consider `C[C@]12CC[C@H]3[C@@H](CCC4=CC(=O)CC[C@@]43C)[C@@H]1CC[C@@H]2O` [testosterone], for which the oxygenated products formed entry in [5] is “no oxygenated products”.

In data set [1] (setting [12]), `CCCCCCCC/C=C\CCCCCCCC(=O)O` [Oleic acid, oleic acid] registered a ΔAmax of 0.277 ±0.014. Also, the “Low- to high-spin state change (%)” value came out at 55.4 ±2.8% in data set [1] (setting [13]) and 55% in data set [1] (5 μM CYP168A1, path length 10 mm, listed as oleic acid). Also, the Kd in data set [1] (setting [14]) was 142 ± 12 nM; in data set [1] (5 μM CYP168A1, 0.1 M Tris-HCl pH 8.1, room temperature, rearranged Morrison equation, listed as oleic acid) it was around 150 nM. In addition, the “% Product, ω-1- carbon hydroxylated” value in data set [2] is 49 ± 1.2%.

As for `CC(C)(C)C(O)(CCc1ccc(Cl)cc1)Cn1cncn1` (stereo not drawn) [tebuconazole], the Kd was 36 nM in data set [8] and 180 ± 10 nM in data set [9].

In the case of `Clc1ccc(COC(Cn2ccnc2)c2ccc(Cl)cc2Cl)c(Cl)c1` (stereo not drawn) [miconazole], the Kd in data set [8] is 26 nM; in data set [9], 190 ± 60 nM.

In data set [1] (setting [12]), `CCCCC/C=C\C/C=C\CCCCCCCC(=O)O` [Linoleic acid, linoleic acid] showed a ΔAmax of 0.142 ±0.013. For the same compound, the “Low- to high-spin state change (%)” value in [1] (setting [13]) is 28.3 ±2.6%; in data set [1] (5 μM CYP168A1, path length 10 mm, listed as linoleic acid), 28%. In addition, the Kd in data set [1] (setting [14]) was below 50 nM. The “Turnover no., ω-1- carbon hydroxylated” value in [2] was found to be 0.35 ± 0.03 min⁻¹; in data set [2] (listed as linoleic acid) it was 0.35 min⁻¹. The “% Product, ω-1- carbon hydroxylated” value in data set [2] is 14 ± 1.3%.

Take `CCCCCCCCCCCC(=O)O` [lauric acid]: in [10], the “enzyme molecules undergoing low- to high-spin state transition” value was 95%. Also, in [7], the “CYP168A1 Km, fold higher than the Ks value” was 25 fold and the CYP168A1 turnover number was 0.138 min⁻¹.

The compound `CCCCCCCCCCCCCCCCCC(=O)O` [Stearic acid, stearic acid] came in with a ΔAmax in data set [1] (setting [12]) of 0.328 ±0.020. Also, the “Ks in this study, fold lower than recently reported” value in data set [1] (compared with ref 28) is reported as “over 6 fold”. The “Low- to high-spin state change (%)” value in data set [1] (setting [13]) amounted to 65.6 ±4.1%. The “Low- to high-spin state change (%)” value in data set [1] (5 μM CYP168A1, path length 10 mm, listed as stearic acid) is 66%. For the same compound, the Kd in [1] (setting [14]) is below 50 nM. Besides, in data set [2], the “catalytic turnover, fold greater than that for linoleic acid” value was 3.5 fold; the “fold less ω-1-hydroxy product formed than with palmitic acid as substrate” value is recorded as 1.2 fold; the “fold less ω-2-hydroxy product formed than with palmitic acid as substrate” value came out at 2 fold; the “Turnover no., ω-1- carbon hydroxylated” value stood at 1.07 ± 0.09 min⁻¹. Further, in [2], the “Turnover no., ω-2- carbon hydroxylated” value was 0.17 ± 0.01 min⁻¹; the “% Product, ω-1- carbon hydroxylated” value turned out to be 41 ± 2.9%; the “% Product, ω-2- carbon hydroxylated” value was 6.6 ± 0.5%; the “hydroxylation rate” value came to 1.24 min⁻¹. The Kd in data set [6] (read-out: Ks reported for P. aeruginosa CYP168A1) is 327 nM.

Consider `CC(=O)N1CCN(c2ccc(OCC3COC(Cn4ccnc4)(c4ccc(Cl)cc4Cl)O3)cc2)CC1` (stereo not drawn) [ketoconazole], for which the “reduction in enzyme activity” value in [11] is given as around 70%.

For the compound `CCCCCC/C=C\CCCCCCCC(=O)O` [Palmitoleic acid, palmitoleic acid], the “fold-difference in apparent Ks values” value in [1] was around 3 fold. The compound also returned a ΔAmax in [1] (setting [12]) of 0.185 ±0.006. The “Low- to high-spin state change (%)” value in data set [1] (setting [13]) turned out to be 37.0 ±1.2%; in [1] (5 μM CYP168A1, path length 10 mm, listed as palmitoleic acid) it was 37%. Also, the Kd in [1] (setting [14]) was 155 ± 83 nM; in data set [1] (5 μM CYP168A1, 0.1 M Tris-HCl pH 8.1, room temperature, rearranged Morrison equation, listed as palmitoleic acid), around 150 nM. Moreover, the “Turnover no., ω-1- carbon hydroxylated” value in data set [2] amounted to 0.38 ± 0.06 min⁻¹; in data set [2] (listed as palmitoleic acid), 0.38 min⁻¹. The “% Product, ω-1- carbon hydroxylated” value in data set [2] is 15 ± 2.4%.

Take `C[C@@H](c1ncncc1F)[C@](O)(Cn1cncn1)c1ccc(F)cc1F` [voriconazole]: the Kd in data set [8] is 10 nM; in data set [9], 2050 ± 540 nM.

The values are drawn from publication PMC8936499, “Cytochrome P450 168A1 from Pseudomonas aeruginosa is involved in the hydroxylation of biologically relevant fatty acids” (PLoS ONE, 2022).
